This note sets out measurements from PubChem BioAssay (NCI).

Test systems include COLO 205 colon; MDA-MB-231 breast; HCT-116 colon; HT29 colon; HCC-2998 colon; SK-MEL-28 melanoma; MCF7 breast; SR leukemia; NCI/ADR-RES ovarian; OVCAR-8 ovarian.
Assay in all cases: NCI anticancer screen, dose series, 48 h

Where “and” joins values, the source holds several entries; their conditions need not be identical. Equal entries are not always repeated.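 1) Cells in 96-well plates. 2) Compound, 48 h, 5 concentrations. 3) Linear interpolation between surrounding doses. 4) Unreached endpoint = highest concentration. GI50 marks 50% less growth. Definition used: TGI = concentration required for complete inhibition of growth.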

Consider `COC([CH2][Hg][n]1cnc2c1c(=O)n(C)c(=O)n2C)CN1C(=O)c2ccccc2S1(=O)=O` (stereo not given), for which the GI50 with COLO 205 colon, in the assay on MDA-MB-231 breast, with HCT-116 colon, in the assay with HT29 colon, with HCC-2998 colon and in the assay on SK-MEL-28 melanoma was over 100 µM in each case. Besides, the GI50 with MCF7 breast was over 100 µM; with SR leukemia, 77.2 µM; with NCI/ADR-RES ovarian it was over 100 µM; with OVCAR-8 ovarian, over 100 µM. The TGI in the assay on COLO 205 colon, with MDA-MB-231 breast, with HCT-116 colon, in the assay with HT29 colon, in the assay on HCC-2998 colon and with SK-MEL-28 melanoma was over 100 µM each time. Moreover, the TGI in the assay on MCF7 breast, in the assay on SR leukemia, in the assay with NCI/ADR-RES ovarian and in the assay with OVCAR-8 ovarian was over 100 µM each time.
With `C=CCOc1ccc2c(C)cc(=O)oc2c1C`, the TGI in the assay on COLO 205 colon, in the assay on MDA-MB-231 breast, with HCT-116 colon, with HT29 colon, in the assay on HCC-2998 colon and in the assay on SK-MEL-28 melanoma was over 100 µM in each case. Further, the TGI in the assay with MCF7 breast, with SR leukemia, in the assay with NCI/ADR-RES ovarian and in the assay on OVCAR-8 ovarian was over 100 µM throughout.
With `O=C1/C(=C/c2ccc(O)c(O)c2)CCC/C1=C\c1ccc(O)c(O)c1`, the TGI is over 64 µM in the assay with COLO 205 colon; 37.4 µM in the assay on MDA-MB-231 breast; 7.17 µM in the assay with HCT-116 colon; 21.2 µM in the assay with HT29 colon; 11.5 µM in the assay on HCC-2998 colon; 11.8 µM with SK-MEL-28 melanoma. Also, the TGI with MCF7 breast was over 48.2 µM; in the assay on SR leukemia it was over 89.8 µM; in the assay with NCI/ADR-RES ovarian, 23.8 µM; with OVCAR-8 ovarian it was 4.42 µM.
In the case of `COC(=O)/C=C1\S/C(=N\NC(=O)c2cc3ccc2/C=C\c2ccc(cc2)/C=C\3)N(c2ccccc2)C1=O`, the GI50 in the assay with MDA-MB-231 breast is 2.63 µM; in the assay with HCT-116 colon it was 1.79 µM; in the assay with HT29 colon it was 1.93 µM; in the assay on HCC-2998 colon, 1.78 µM; in the assay on SK-MEL-28 melanoma it was 2.97 µM; in the assay with MCF7 breast, 1.87 µM. Besides, the GI50 was 2.46 µM with SR leukemia, 2.92 µM with NCI/ADR-RES ovarian and 3.08 µM with OVCAR-8 ovarian. Further, the TGI in the assay with MDA-MB-231 breast worked out at 7.46 µM; in the assay with HCT-116 colon it was 3.67 µM; with HT29 colon, 4.07 µM; in the assay with HCC-2998 colon it was 3.45 µM; with SK-MEL-28 melanoma, 9.87 µM; in the assay with MCF7 breast, 4.95 µM. Besides, the TGI in the assay on SR leukemia is over 100 µM; with NCI/ADR-RES ovarian it was 10.6 µM; in the assay with OVCAR-8 ovarian, over 100 µM.
For `C[C@@H](Oc1cc(-n2cnc3ccc(CN4CCN(C)CC4)cc32)sc1C(N)=O)c1ccccc1C(F)(F)F`, the GI50 in the assay on COLO 205 colon is < 0.01 µM and 0.00424 µM; in the assay with HCT-116 colon, < 0.0125 µM and 0.0139 µM; in the assay on HT29 colon, < 0.01 µM and 0.00402 µM; in the assay on HCC-2998 colon, < 0.0161 µM and 0.0397 µM; with MCF7 breast it was < 0.01 µM and 0.00478 µM; with SR leukemia it was < 0.01 µM and 0.00514 µM. For the same compound, the GI50 was 0.162 µM and 0.2 µM in the assay on NCI/ADR-RES ovarian; < 0.0153 µM and 0.0146 µM in the assay with OVCAR-8 ovarian. Also, the TGI with COLO 205 colon is 0.699 µM; in the assay with MDA-MB-231 breast, 2.65 µM and > 2.79 µM; in the assay with HCT-116 colon, 12.9 µM and > 10 µM; in the assay on HT29 colon, 6.51 µM and > 10 µM; in the assay on MCF7 breast it was 15.2 µM and > 10 µM; with SR leukemia it was 1.75 µM and 1.44 µM. Also, the TGI was 14.3 µM and > 10 µM with NCI/ADR-RES ovarian; 13.6 µM and > 10 µM with OVCAR-8 ovarian.
With `CCN(CC)CCSc1c2ccccc2nc2cc(NCC(=O)Nc3ccccc3-c3ccccc3NC(=O)CNc3ccc4c(SCCN(CC)CC)c5ccccc5nc4c3)ccc12`, the TGI in the assay on COLO 205 colon is over 55.3 µM; with HCT-116 colon it was over 100 µM; in the assay on HT29 colon, over 100 µM; with HCC-2998 colon it was over 100 µM; in the assay on SK-MEL-28 melanoma, over 100 µM; with SR leukemia, over 100 µM. For the same compound, in the assay on OVCAR-8 ovarian, the TGI is over 100 µM.
On to `CO/C(=N\N=C\c1ccc(C(F)(F)F)cc1)c1ccncc1`, for which the TGI in the assay on COLO 205 colon, with MDA-MB-231 breast, in the assay with HCT-116 colon, in the assay on HT29 colon, in the assay on HCC-2998 colon and with MCF7 breast was over 10 µM each time. Also, the TGI in the assay with SR leukemia, in the assay on NCI/ADR-RES ovarian and in the assay on OVCAR-8 ovarian was over 10 µM in each case.
Take `COc1cnc2c(c1)C(=O)c1c-2n(CCCN2CCOCC2)c(=O)c2cc(F)ccc12`: the GI50 with MDA-MB-231 breast was 1.6 µM; with HT29 colon, 0.147 µM; in the assay with HCC-2998 colon it was 2.75 µM; in the assay with SK-MEL-28 melanoma it was 1.2 µM; with SR leukemia it was 0.0829 µM; in the assay on NCI/ADR-RES ovarian, 0.299 µM. In addition, in the assay with OVCAR-8 ovarian, the GI50 was 0.246 µM. Besides, the TGI in the assay on MDA-MB-231 breast was over 100 µM; in the assay with HT29 colon it was 0.638 µM; in the assay on HCC-2998 colon, over 100 µM; in the assay on SK-MEL-28 melanoma, over 100 µM; in the assay with SR leukemia, 1.27 µM; in the assay with NCI/ADR-RES ovarian, over 100 µM. In the assay with OVCAR-8 ovarian, this compound had a TGI of over 100 µM.
`CN(C)C(=S)N=C(Nc1ccccc1)Nc1ccccc1`: the TGI in the assay on COLO 205 colon, with HCT-116 colon, with HT29 colon, in the assay with HCC-2998 colon, with SK-MEL-28 melanoma and in the assay with SR leukemia was over 100 µM each time. The TGI with OVCAR-8 ovarian is over 100 µM.
Take `CCC(=O)[C@H](C)[C@@H](OC(=O)[C@H](C)CC)[C@H](C)[C@H]1OC(CC)=C(C)C(=O)[C@@H]1C`: the GI50 was 14.9 µM in the assay with COLO 205 colon; 13.3 µM in the assay on MDA-MB-231 breast; 9.98 µM in the assay on HCT-116 colon; 13.4 µM in the assay on HT29 colon; 21.2 µM in the assay on SK-MEL-28 melanoma; 26.3 µM in the assay on MCF7 breast. Moreover, the figures for the GI50 in the assay with SR leukemia, in the assay with NCI/ADR-RES ovarian and with OVCAR-8 ovarian were 13.5 µM, 18.6 µM and 42.4 µM, respectively. Further, the TGI worked out at 29.3 µM in the assay on COLO 205 colon; 30.9 µM with MDA-MB-231 breast; 72.4 µM in the assay with HCT-116 colon; 32.8 µM with HT29 colon; 57.4 µM with SK-MEL-28 melanoma; 89 µM with MCF7 breast. The figures for the TGI with SR leukemia, in the assay with NCI/ADR-RES ovarian and with OVCAR-8 ovarian were 42.3 µM, 55 µM and over 100 µM, respectively.
As for `NC(=O)NO.O.O.O.O.O.O.O.O.O.O.O.[Ge].[Ge].[Ge].[Ge].[Ge].[O]=[Ge].[O]=[Ge].[O]=[Ge].[O]=[Ge].[O]=[Ge][OH]`, the TGI in the assay on COLO 205 colon, in the assay on HCT-116 colon, with HT29 colon, in the assay on HCC-2998 colon, in the assay with SK-MEL-28 melanoma and in the assay on SR leukemia was over 100 µM each time. The same compound displayed a TGI in the assay on OVCAR-8 ovarian of over 100 µM.
As to `CCOC(=O)Cn1c(C(F)(F)F)nc2nc(Cl)c(Cl)nc21`, the TGI with COLO 205 colon was over 100 µM; in the assay with MDA-MB-231 breast, over 100 µM; in the assay with HCT-116 colon, over 100 µM; in the assay with HT29 colon, over 100 µM; in the assay with SK-MEL-28 melanoma, over 100 µM; in the assay on MCF7 breast, over 87.4 µM. Besides, the TGI in the assay with SR leukemia, with NCI/ADR-RES ovarian and in the assay with OVCAR-8 ovarian was over 100 µM throughout.
